Assay results published in ChEMBL document CHEMBL5653615 (J Biol Chem, 2013).

How the values were obtained:
[1] = molecular target: T1, Serine/threonine-protein kinase BRSK2 (Homo sapiens) (UniProt Q8IWQ3); experiment: Inhibition of human BRSK2 at 500 nM by HotSpot assay relative to control
T1 sequence (whole entry): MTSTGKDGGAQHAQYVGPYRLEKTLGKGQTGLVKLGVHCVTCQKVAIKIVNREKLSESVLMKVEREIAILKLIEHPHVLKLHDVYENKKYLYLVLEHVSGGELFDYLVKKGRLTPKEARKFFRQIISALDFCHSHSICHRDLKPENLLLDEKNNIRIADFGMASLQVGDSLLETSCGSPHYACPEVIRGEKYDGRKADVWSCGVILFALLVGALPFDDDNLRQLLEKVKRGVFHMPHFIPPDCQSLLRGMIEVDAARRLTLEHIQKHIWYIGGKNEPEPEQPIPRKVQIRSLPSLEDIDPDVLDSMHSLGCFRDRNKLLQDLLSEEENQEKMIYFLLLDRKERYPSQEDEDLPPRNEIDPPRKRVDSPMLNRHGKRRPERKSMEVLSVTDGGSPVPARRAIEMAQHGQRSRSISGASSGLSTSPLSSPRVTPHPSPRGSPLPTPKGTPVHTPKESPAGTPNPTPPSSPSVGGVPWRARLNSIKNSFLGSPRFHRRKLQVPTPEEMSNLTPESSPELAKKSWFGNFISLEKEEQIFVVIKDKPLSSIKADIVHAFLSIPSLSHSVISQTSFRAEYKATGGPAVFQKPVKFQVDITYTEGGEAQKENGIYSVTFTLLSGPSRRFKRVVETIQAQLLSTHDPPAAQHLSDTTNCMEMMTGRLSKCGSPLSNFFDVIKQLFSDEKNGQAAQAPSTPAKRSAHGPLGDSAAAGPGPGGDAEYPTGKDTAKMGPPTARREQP

[2] = molecular target: Cyclin-dependent kinase 2/cyclin E1 (Homo sapiens) (UniProt P24864+P24941); experiment: Inhibition of human CDK2/cyclin E at 500 nM by HotSpot assay relative to control; assay type: protein-complex assay
[3] = molecular target: Casein kinase I isoform gamma-2 (Homo sapiens) (UniProt P78368); experiment: Inhibition of human CK1g2 at 500 nM by HotSpot assay relative to control
Chain of Casein kinase I isoform gamma-2 (Homo sapiens) (P78368 whole entry, looked up, canonical isoform): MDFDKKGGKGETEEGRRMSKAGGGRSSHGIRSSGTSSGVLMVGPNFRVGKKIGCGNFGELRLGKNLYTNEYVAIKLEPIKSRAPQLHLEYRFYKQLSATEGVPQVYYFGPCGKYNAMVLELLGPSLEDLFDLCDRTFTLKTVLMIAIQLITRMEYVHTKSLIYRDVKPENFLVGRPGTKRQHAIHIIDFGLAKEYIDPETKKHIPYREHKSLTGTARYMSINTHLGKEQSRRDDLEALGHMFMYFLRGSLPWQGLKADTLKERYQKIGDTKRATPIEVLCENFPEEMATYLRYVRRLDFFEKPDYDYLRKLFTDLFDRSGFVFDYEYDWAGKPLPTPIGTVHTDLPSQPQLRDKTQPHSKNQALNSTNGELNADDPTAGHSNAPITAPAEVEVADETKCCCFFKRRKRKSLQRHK

[4] = molecular target: Vascular endothelial growth factor receptor 1 (Homo sapiens) (UniProt P17948); experiment: Inhibition of human FLT1 at 500 nM by HotSpot assay relative to control
Chain of Vascular endothelial growth factor receptor 1 (Homo sapiens) (P17948 whole entry): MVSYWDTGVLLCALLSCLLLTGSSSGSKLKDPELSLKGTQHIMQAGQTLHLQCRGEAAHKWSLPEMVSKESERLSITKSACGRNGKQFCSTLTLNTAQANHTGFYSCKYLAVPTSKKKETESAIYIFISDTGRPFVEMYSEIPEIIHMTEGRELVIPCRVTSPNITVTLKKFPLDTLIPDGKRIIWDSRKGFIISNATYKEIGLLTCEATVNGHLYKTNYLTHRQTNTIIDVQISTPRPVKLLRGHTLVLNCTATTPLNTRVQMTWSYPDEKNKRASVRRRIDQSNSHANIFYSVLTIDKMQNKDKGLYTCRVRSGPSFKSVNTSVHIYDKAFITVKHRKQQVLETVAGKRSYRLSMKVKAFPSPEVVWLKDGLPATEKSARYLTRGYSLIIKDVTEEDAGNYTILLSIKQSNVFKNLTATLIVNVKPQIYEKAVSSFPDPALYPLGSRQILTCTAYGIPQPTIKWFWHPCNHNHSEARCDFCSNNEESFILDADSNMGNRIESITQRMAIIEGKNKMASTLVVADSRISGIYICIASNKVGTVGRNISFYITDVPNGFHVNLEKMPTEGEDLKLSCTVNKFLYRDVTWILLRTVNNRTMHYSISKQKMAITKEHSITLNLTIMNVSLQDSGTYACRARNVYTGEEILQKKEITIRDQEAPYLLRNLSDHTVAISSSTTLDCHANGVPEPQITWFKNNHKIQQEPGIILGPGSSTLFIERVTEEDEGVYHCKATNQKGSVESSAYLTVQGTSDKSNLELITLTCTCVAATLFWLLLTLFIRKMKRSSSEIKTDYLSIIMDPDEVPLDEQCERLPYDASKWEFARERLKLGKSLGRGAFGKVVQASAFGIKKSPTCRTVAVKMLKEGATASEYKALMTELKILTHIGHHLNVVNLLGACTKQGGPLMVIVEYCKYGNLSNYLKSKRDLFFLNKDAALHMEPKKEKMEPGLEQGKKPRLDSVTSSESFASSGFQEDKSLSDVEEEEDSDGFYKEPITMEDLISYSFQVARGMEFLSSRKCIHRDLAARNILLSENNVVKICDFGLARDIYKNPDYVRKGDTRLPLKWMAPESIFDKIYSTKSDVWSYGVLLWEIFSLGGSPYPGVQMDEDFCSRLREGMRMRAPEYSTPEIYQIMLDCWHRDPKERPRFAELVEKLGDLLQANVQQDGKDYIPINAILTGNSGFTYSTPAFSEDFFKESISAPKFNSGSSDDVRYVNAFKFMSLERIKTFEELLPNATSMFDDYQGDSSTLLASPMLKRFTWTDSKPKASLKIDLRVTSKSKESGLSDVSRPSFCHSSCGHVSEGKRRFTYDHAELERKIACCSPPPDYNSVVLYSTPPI

[5] = molecular target: T2, Rhodopsin kinase GRK7 (Homo sapiens) (UniProt Q8WTQ7); experiment: Inhibition of human GRK7 at 500 nM by HotSpot assay relative to control
T2 sequence (whole entry): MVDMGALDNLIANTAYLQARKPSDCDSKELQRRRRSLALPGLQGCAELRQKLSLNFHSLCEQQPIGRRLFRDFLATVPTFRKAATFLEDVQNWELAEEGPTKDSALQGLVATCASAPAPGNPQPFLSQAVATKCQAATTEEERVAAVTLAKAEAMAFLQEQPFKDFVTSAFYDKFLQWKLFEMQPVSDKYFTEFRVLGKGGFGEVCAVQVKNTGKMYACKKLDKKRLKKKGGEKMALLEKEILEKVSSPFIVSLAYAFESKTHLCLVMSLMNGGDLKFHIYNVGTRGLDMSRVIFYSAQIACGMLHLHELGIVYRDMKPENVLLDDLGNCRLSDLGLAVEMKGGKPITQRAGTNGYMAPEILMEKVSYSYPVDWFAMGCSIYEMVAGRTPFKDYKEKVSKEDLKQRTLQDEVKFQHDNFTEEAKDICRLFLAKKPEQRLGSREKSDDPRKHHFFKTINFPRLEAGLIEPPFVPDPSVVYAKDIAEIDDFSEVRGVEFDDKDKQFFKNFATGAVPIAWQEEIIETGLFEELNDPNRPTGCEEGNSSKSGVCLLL

[6] = molecular target: Mitogen-activated protein kinase kinase kinase kinase 4 (Homo sapiens) (UniProt O95819); experiment: Inhibition of human HGK at 500 nM by HotSpot assay relative to control
[7] = molecular target: Serine/threonine-protein kinase PAK 3 (Homo sapiens) (UniProt O75914); experiment: Inhibition of human PAK3 at 500 nM by HotSpot assay relative to control
Chain of Serine/threonine-protein kinase PAK 3 (Homo sapiens) (O75914 whole entry, looked up, the tested form may be a part): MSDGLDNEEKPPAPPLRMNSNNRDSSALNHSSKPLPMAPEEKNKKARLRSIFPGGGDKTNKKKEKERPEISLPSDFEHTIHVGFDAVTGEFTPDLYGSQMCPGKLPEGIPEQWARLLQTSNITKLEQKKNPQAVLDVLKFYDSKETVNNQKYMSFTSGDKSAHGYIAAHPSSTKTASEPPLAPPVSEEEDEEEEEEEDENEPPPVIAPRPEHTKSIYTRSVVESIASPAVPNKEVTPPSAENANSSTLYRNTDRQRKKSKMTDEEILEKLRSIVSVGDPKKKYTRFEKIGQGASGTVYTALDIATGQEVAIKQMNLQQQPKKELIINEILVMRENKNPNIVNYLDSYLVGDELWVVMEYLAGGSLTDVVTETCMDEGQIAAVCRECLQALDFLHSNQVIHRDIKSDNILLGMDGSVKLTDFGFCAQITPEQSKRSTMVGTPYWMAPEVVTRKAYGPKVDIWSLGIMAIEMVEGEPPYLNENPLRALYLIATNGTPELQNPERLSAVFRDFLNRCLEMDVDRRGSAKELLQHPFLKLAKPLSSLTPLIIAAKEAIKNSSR

[8] = molecular target: PAS domain-containing serine/threonine-protein kinase (Homo sapiens) (UniProt Q96RG2); experiment: Inhibition of human PASK at 500 nM by HotSpot assay relative to control
Chain of PAS domain-containing serine/threonine-protein kinase (Homo sapiens) (Q96RG2 whole entry, the tested form may be a part): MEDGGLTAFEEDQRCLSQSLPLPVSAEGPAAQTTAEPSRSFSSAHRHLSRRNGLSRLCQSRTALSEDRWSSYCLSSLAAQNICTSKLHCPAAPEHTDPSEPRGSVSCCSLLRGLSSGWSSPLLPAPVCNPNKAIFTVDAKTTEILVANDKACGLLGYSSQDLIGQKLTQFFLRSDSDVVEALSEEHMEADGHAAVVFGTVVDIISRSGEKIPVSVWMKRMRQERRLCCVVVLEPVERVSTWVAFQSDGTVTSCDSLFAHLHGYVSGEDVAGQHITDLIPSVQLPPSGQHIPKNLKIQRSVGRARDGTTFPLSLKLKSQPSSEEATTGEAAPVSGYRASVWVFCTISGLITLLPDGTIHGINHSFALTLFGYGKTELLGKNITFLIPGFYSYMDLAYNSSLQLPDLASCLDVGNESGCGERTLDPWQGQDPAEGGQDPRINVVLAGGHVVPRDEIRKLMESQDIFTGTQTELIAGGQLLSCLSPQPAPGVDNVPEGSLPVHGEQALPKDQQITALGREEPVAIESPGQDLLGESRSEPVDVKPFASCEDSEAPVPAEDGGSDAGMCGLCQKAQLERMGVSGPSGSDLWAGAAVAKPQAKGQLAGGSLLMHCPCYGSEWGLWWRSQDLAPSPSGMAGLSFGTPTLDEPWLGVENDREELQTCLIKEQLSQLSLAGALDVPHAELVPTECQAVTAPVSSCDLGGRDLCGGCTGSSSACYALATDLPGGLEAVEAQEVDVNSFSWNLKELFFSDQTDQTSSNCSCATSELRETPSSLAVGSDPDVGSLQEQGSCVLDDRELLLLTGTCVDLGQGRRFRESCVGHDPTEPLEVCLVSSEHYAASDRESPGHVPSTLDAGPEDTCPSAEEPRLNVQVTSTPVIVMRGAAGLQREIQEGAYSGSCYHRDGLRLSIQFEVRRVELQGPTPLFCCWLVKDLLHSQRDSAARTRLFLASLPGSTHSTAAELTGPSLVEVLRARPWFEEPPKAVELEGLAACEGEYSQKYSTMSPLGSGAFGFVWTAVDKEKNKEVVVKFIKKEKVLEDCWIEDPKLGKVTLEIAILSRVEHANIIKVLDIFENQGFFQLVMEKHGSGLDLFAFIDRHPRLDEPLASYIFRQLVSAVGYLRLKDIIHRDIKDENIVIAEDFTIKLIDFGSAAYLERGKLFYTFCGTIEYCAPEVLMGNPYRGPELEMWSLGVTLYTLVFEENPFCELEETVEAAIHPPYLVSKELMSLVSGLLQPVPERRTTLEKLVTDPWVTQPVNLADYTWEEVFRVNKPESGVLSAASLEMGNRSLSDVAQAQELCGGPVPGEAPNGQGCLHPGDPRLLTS

[9] = molecular target: Protein kinase C gamma type (Homo sapiens) (UniProt P05129); experiment: Inhibition of human PKCg at 500 nM by HotSpot assay relative to control
[10] = molecular target: T3, Serine/threonine-protein kinase D1 (Homo sapiens) (UniProt Q15139); experiment: Inhibition of human PRKD1 at 500 nM by HotSpot assay relative to control
T3 sequence (whole entry): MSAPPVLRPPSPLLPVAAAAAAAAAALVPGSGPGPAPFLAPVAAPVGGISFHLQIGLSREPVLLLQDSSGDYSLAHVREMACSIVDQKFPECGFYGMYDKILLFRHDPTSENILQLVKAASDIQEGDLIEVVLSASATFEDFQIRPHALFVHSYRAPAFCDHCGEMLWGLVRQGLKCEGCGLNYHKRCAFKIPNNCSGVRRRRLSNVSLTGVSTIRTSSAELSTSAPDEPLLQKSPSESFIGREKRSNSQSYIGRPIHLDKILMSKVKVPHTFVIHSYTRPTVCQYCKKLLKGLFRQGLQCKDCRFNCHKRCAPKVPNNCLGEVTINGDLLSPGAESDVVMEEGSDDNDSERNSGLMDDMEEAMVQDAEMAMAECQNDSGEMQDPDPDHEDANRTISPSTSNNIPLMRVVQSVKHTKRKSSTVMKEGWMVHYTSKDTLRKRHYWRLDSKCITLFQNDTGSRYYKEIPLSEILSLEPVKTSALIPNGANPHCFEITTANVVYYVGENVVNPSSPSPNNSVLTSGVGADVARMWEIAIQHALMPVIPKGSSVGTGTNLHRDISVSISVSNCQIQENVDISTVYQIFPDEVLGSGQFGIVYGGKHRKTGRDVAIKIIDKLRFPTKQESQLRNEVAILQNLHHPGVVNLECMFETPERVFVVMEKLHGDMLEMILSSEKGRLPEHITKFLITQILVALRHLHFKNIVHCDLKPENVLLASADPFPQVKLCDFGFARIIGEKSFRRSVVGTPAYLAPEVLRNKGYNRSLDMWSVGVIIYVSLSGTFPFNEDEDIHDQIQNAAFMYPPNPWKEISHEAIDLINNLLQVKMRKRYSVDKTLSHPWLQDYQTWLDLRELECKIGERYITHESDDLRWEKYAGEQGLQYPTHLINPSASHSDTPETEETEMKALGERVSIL

[11] = molecular target: Serine/threonine-protein kinase OSR1 (Homo sapiens) (UniProt O95747); experiment: Inhibition of human OXSR1 at 500 nM by HotSpot assay relative to control
Chain of Serine/threonine-protein kinase OSR1 (Homo sapiens) (O95747 whole entry, looked up): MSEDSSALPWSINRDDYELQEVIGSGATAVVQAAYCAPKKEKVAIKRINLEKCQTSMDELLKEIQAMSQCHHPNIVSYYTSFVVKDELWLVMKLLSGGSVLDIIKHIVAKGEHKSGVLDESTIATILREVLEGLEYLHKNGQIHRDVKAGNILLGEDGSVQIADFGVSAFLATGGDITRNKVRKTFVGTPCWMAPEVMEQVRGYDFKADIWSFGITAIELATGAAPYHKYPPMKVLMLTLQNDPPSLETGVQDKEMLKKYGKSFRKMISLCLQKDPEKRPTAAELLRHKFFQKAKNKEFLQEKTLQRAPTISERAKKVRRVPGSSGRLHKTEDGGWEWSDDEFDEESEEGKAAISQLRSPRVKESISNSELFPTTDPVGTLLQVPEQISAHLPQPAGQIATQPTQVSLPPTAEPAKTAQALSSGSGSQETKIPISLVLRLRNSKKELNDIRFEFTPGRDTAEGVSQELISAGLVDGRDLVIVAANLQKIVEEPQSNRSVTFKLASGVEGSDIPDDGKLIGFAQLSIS

| SMILES | inhibition [1] | inhibition [2] | inhibition [3] | inhibition [4] | inhibition [5] | inhibition [6] | inhibition [7] | inhibition [8] | inhibition [9] | inhibition [10] | inhibition [11] |
| --- | --- | --- | --- | --- | --- | --- | --- | --- | --- | --- | --- |
| Nc1n[nH]c2nnc(-c3c(-c4ccccc4)nn4ccccc34)cc12 | 3.92% | -0.67% | -9.31% | 3.34% | 3.29% | 38% | -0.04% | 0.21% | -2.64% | 31.6% | -2.39% |
| Oc1n[nH]c2nnc(-c3c(-c4ccccc4)nn4ccccc34)cc12 | 1.23% | 0.01% | 3.49% | 0.38% | 6.89% | 0.95% | 0.99% | -0.26% | -2.44% | -0.59% | -8.54% |
